Laboratory results published in patent US8951563B2, “Antibiotic drug delivery and potentiation” (Technion Research & Development Foundation Limited, priority 2009, dated 2015).

How the values were obtained:
Type in all cases: cell-based
[1] = system: E. coli AB301, wild type (efflux+); assay: FIC index with sub-MIC OAK, E. coli AB301; details: sub-MIC C12K-7α8
Description: (§1) Bacteria were grown overnight in LB growth medium and diluted 10,000-fold in same medium.
(§2) Synergistic effect of the combinations was assessed by determination of the fractional inhibitory concentration (FIC) where FIC=(MIC OAK in combination with antibiotic)/(MIC OAK alone)+(MIC antibiotic in combination)/(MIC antibiotic alone). Synergy was determined for FIC 0.5.

E. coli U-16329 = assay: Antibiotic MIC / chemo-sensitization checkerboard with OAK, E. coli U-16329; details: for MIC: Escherichia coli, U16329, OAK: None; for FIC: antibiotic combined with C12K-7α8
Description: as §1
(§3) Inhibition of proliferation was determined by optical density measurements (620 nm) after incubation overnight at 37° C.
as §2

E. coli U-16327 = assay: Antibiotic MIC / chemo-sensitization checkerboard with OAK, E. coli U-16327; details: for MIC: Escherichia coli, U16327, OAK: None; for FIC: antibiotic combined with C12K-7α8
Description: as §1, §3, §2

[2] = system: E. coli N281, ribosomal mutation; assay: FIC index with sub-MIC OAK, E. coli N281; details: sub-MIC C12K-7α8
Description: as §1, §2

[3] = system: E. coli AG100A, ΔacrAB (efflux−); details: sub-MIC C12K-7α8
Description: as §1, §2

E. coli 14182 = assay: Antibiotic MIC / chemo-sensitization checkerboard with OAK, E. coli 14182; details: for FIC: antibiotic combined with C12K-7α8; for MIC: Escherichia coli, OAK: None
Description: as §1, §3, §2

E. coli 14384 = assay: Antibiotic MIC / chemo-sensitization checkerboard with OAK, E. coli 14384; details: for FIC: antibiotic combined with C12K-7α8; for MIC: Escherichia coli
Description: as §1, §3, §2

[4] = system: E. coli AG100, wild type (efflux+); details: sub-MIC C12K-7α8
Description: as §1, §2

| Compound | MIC (E. coli U-16329) [µg/mL] | MIC (E. coli U-16327) [µg/mL] | FIC [3] | Antibiotic MIC in presence of OAK (E. coli 14182; +1.7 μg/ml C12K-7α8 (¼ MIC)) [µg/mL] | Antibiotic MIC in presence of OAK (E. coli 14182; +3.5 μg/ml C12K-7α8 (½ MIC)) [µg/mL] | Antibiotic MIC in presence of OAK (E. coli 14182; +[…] C12K-7α8 (⅓ MIC)) [µg/mL] | FIC (E. coli 14182) | Antibiotic MIC in presence of OAK (E. coli 14384; +1.7 μg/ml C12K-7α8 (¼ MIC)) [µg/mL] | Antibiotic MIC in presence of OAK (E. coli 14384; +3.5 μg/ml C12K-7α8 (½ MIC)) [µg/mL] | Antibiotic MIC in presence of OAK (E. coli 14384; +[…] C12K-7α8 (⅓ MIC)) [µg/mL] | FIC (E. coli 14384) | Antibiotic MIC in presence of OAK (E. coli U-16329; +3.5 μg/ml C12K-7α8 (½ MIC)) [µg/mL] | Antibiotic MIC in presence of OAK (E. coli U-16329; +[…] C12K-7α8 (⅓ MIC)) [µg/mL] | FIC (E. coli U-16329) | Antibiotic MIC in presence of OAK (E. coli U-16327; +3.5 μg/ml C12K-7α8 (½ MIC)) [µg/mL] | Antibiotic MIC in presence of OAK (E. coli U-16327; +[…] C12K-7α8 (⅓ MIC)) [µg/mL] | FIC (E. coli U-16327) | FIC [4] | MIC (E. coli 14182) [µg/mL] | Antibiotic MIC in presence of OAK (E. coli U-16327; +1.7 μg/ml C12K-7α8 (¼ MIC)) [µg/mL] | further results |
| --- | --- | --- | --- | --- | --- | --- | --- | --- | --- | --- | --- | --- | --- | --- | --- | --- | --- | --- | --- | --- | --- |
| CC[C@H]1OC(=O)[C@H](C)[C@@H](O[C@H]2C[C@@](C)(OC)[C@@H](O)[C@H](C)O2)[C@H](C)[C@@H](O[C@@H]2O[C@H](C)C[C@H](N(C)C)[C@H]2O)[C@](C)(OC)C[C@@H](C)C(=O)[C@H](C)[C@@H](O)[C@]1(C)O [Clarithromycin, clarithromycin] | 128 | 128 | 0.75 |  |  |  |  |  |  |  |  |  |  |  |  |  |  |  |  |  | FIC [1]: 0.56; FIC [2]: 1.0 |
| CC[C@H]1OC(=O)[C@H](C)[C@@H](O[C@H]2C[C@@](C)(OC)[C@@H](O)[C@H](C)O2)[C@H](C)[C@@H](O[C@@H]2O[C@H](C)C[C@H](N(C)C)[C@H]2O)[C@](C)(O)C[C@@H](C)C(=O)[C@H](C)[C@@H](O)[C@]1(C)O [Erythromycin, erythromycin] | 256 | 512 | 0.86 | 32 | 4 | 16 | 0.46 | 64 | 8 | 16 | 0.39 | 16 | 64 | 0.56 | 16 | 64 | 0.46 | 0.46 |  |  | FIC [1]: 0.56; FIC [2]: 1.0 |
| Cc1onc(-c2ccccc2)c1C(=O)N[C@@H]1C(=O)N2[C@@H]1SC(C)(C)[C@@H]2C(=O)O [Oxacillin, oxacillin] | > 512 | > 512 | 0.75 | >512 | >512 | >512 |  | >512 | >512 | >512 |  | 512 | >512 |  | 512 | >512 |  | 0.5 | > 512 | >512 | MIC (E. coli 14384; OAK: None): > 512 µg/mL; Antibiotic MIC in presence of OAK (E. coli U-16329; +1.7 μg/ml C12K-7α8 (¼ MIC)): >512 µg/mL |
| CC1(C)S[C@@H]2[C@H](NC(=O)Cc3ccccc3)C(=O)N2[C@H]1C(=O)O [Penicillin G, penicillin G] | 256 | > 512 | 1.0 | >512 | >512 | >512 |  | >512 | >512 | >512 |  | 128 to 256 | 256 | 1 | 512 | >512 |  | 0.58 | > 512 | >512 | MIC (E. coli 14384; OAK: None): > 512 µg/mL; Antibiotic MIC in presence of OAK (E. coli U-16329; +1.7 μg/ml C12K-7α8 (¼ MIC)): 256 µg/mL |
| CCN1CCN(C(=O)N[C@@H](C(=O)N[C@@H]2C(=O)N3[C@@H]2SC(C)(C)[C@@H]3C(=O)O)c2ccccc2)C(=O)C1=O [Piperacillin, piperacillin] | 256 | 256 |  | >512 | 64 | >512 | 0.63 | 256 to 512 | 128 | 256 to 512 | 0.63 | 64 | 128 | 0.75 | 64 | 128 to 256 | 0.63 | 0.75 | 512 | 256 | MIC (E. coli 14384; OAK: None): 256 to 512 µg/mL; Antibiotic MIC in presence of OAK (E. coli U-16329; +1.7 μg/ml C12K-7α8 (¼ MIC)): 128 to 256 µg/mL |
| CO[C@H]1/C=C/O[C@@]2(C)Oc3c(C)c(O)c4c(O)c(c(/C=N/N5CCN(C)CC5)c(O)c4c3C2=O)NC(=O)/C(C)=C\C=C\[C@H](C)[C@H](O)[C@@H](C)[C@@H](O)[C@@H](C)[C@H](OC(C)=O)[C@@H]1C [Rifampin, rifampicin] | 16 | 8 to 16 | 0.75 | 4 | 0.25 | 2 | 0.46 | 1 | 0.03 | 0.06 to 0.13 | 0.31 | 1 | 2 | 0.46 | 0.25 | 1 | 0.38 | 0.46 | 16 | 2 | MIC (E. coli 14384; OAK: None): 8 µg/mL; Antibiotic MIC in presence of OAK (E. coli U-16329; +1.7 μg/ml C12K-7α8 (¼ MIC)): 4 µg/mL |
| gentamicin [Gentamycin] |  |  | 1.0 |  | 64 to 128 |  | 1 | 4 | 2 | 2 to 4 | 1 |  |  |  | 1 to 2 | 2 | 0.75 | 1.0 |  | 4 | Antibiotic MIC (E. coli 14384; OAK: None): 4 µg/mL; Antibiotic MIC (E. coli U-16327; OAK: None): 4 µg/mL |
